Experimental data: the supplement of paper PMC10307832

How the values were obtained:
Experiment in all cases: relative viability (nuclei count vs DMSO), 5 days (fraction); higher = more cells survive
[1] = compound: COc1cc2nc(N3CCCN(C)CC3)nc(NC3CCN(Cc4ccccc4)CC3)c2cc1OC + CCNC(=O)c1noc(-c2cc(C(C)C)c(O)cc2O)c1-c1ccc(CN2CCOCC2)cc1 [Luminespib] (partner 0.01 µM)
Summary of the method: (§1)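 One day after seeding in 1536-well plates, lung cancer cell lines were dosed by pin tool. Dosing was either single-drug or a fixed anchor-drug dose plus five library-drug doses (not always all listed) in √10 steps. After 5 days, nuclei were stained in one fix-and-stain step and counted on 4× images, and relative viability is the nuclei count of treated wells over that of vehicle wells, given as the median of duplicate plates.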

[2] = compound: COc1cc2nc(N3CCCN(C)CC3)nc(NC3CCN(Cc4ccccc4)CC3)c2cc1OC + O=C(c1cc(Cc2n[nH]c(=O)c3ccccc23)ccc1F)N1CCN(C(=O)C2CC2)CC1 [Olaparib] (partner 8 µM)
Summary of the method: as §1

[3] = compound: Cc1cc([C@@H](C)Nc2ccccc2C(=O)O)c2nc(N3CCOCC3)cc(=O)n2c1 [AZD6482] + CS(=O)(=O)N1CCN(Cc2cc3nc(-c4cccc5[nH]ncc45)nc(N4CCOCC4)c3s2)CC1 [Pictilisib] (partner 1 µM)
Summary of the method: as §1

[4] = compound: Cc1cc([C@@H](C)Nc2ccccc2C(=O)O)c2nc(N3CCOCC3)cc(=O)n2c1 [AZD6482] + NC(=O)Nc1cc(-c2cccc(F)c2)sc1C(=O)N[C@H]1CCCNC1 [AZD7762] (partner 0.2 µM)
Summary of the method: as §1

Cell Line	relative viability ([1]; first compound 0.2 µM)	relative viability ([1]; first compound 0.6325 µM)	relative viability ([1]; first compound 2 µM)	relative viability ([1]; first compound 6.325 µM)	relative viability ([2]; first compound 0.2 µM)	relative viability ([2]; first compound 0.6325 µM)	relative viability ([2]; first compound 2 µM)	relative viability ([2]; first compound 6.325 µM)	relative viability ([3]; first compound 0.08 µM)	relative viability ([3]; first compound 0.253 µM)	relative viability ([3]; first compound 0.8 µM)	relative viability ([3]; first compound 2.53 µM)	relative viability ([3]; first compound 8 µM)	relative viability ([4]; first compound 0.08 µM)	relative viability ([4]; first compound 0.253 µM)	relative viability ([4]; first compound 0.8 µM)	relative viability ([4]; first compound 2.53 µM)	relative viability ([4]; first compound 8 µM)
NCI-H1915	0.762	0.731	0.794	0.893	0.243	0.267	0.272	0.251	0.886	0.916	1.03	0.79	0.909	0.672	0.538	0.669	0.631	0.639
NCI-H1793	0.18	0.193	0.134	0.154	0.805	0.924	1.09	0.995	0.261	0.336	0.293		0.259	0.377	0.361	0.315	0.218	0.249
RERF-LC-KJ	1.15	1.13	1.33	0.903	0.857	0.898	1.04	0.637	0.492	0.488	0.502	0.535	0.7	0.867	0.893		0.812	0.838
LXF-289	0.592	0.651	0.729	0.676	1.03	1.07	1.12	1.05	0.66	0.736	0.739	0.638	0.745	1.11	1.13	1.26	0.982	0.956
PC-14	0.123	0.242	0.162	0.122	0.322	0.374	0.279	0.0641	0.575	0.632	0.591	0.376	0.771	0.417	0.302	0.324	0.26	0.194
NCI-H650	0.746	0.628	0.783	0.661	0.445	0.356	0.434	0.396	0.931		0.908	0.541	0.813	1.06	0.918	1.12	0.77	0.619
NCI-H1666	0.973	0.997	1.11	0.947	0.716	0.754	0.756	0.751	0.437	0.547	0.558	0.437	0.405	0.79	0.776	0.958	0.835	0.767
NCI-H2085	0.458	0.393	0.373	0.404	0.775	0.82	0.869	0.785	0.428	0.359	0.404	0.33	0.407	0.522	0.372	0.41	0.289	0.341
NCI-H1734	0.182	0.194	0.183	0.172	0.61	0.533	0.645	0.594	0.395	0.452	0.485	0.305	0.408	0.533	0.504	0.556	0.303	0.367
NCI-H2126	0.877	0.864	0.754	0.815	1.01	0.892	0.883	0.919	0.446	0.513	0.494	0.368	0.483	1.02	0.849	1.02	0.795	0.762
EMC-BAC-2	1.09	1.17	1.2	1.14	0.494	0.406	0.438	0.511	0.487	0.51	0.505	0.374	0.555	1.03	0.958	1.02	0.818	0.679
NCI-H1993	0.818	0.719	0.923	0.867	1.03	1.05	1.14	1.2	0.907	0.779			0.769	0.454	0.734	0.717	0.427	0.55
NCI-H647	0.352	0.249	0.159	0.292	0.517	0.443	0.537	0.242	0.358		0.38	0.249	0.408	0.365	0.445	0.495	0.191	0.235
NCI-H1792		0.377	0.419	0.721	0.49	0.409	0.485	0.441	0.224	0.237	0.288	0.191	0.213	0.516	0.577	0.427	0.262	0.322
ChaGo-K-1	0.569	0.671	0.74	0.527	0.386	0.44	0.375	0.39	0.765		1.15	1.01	0.977	0.897	0.775	0.946	0.823	0.915
LOU-NH91	0.383	0.295	0.359	0.367	0.911	0.918	0.968	0.958	0.491	0.513	0.516	0.48	0.493	0.695	0.69	0.704	0.519	0.543
NCI-H2405	0.778	0.673	0.75	0.786	0.886	0.847	0.91	0.883	0.31		0.559	0.381	0.386	0.563	0.658	0.697	0.388	0.374
LCLC-97TM1	0.79	0.73	0.822	0.777	0.488	0.312	0.48	0.63	0.246	0.175	0.245	0.176	0.146	0.344	0.157	0.442		0.299

Cell Line	relative viability ([1]; first compound 0.2 µM)	relative viability ([1]; first compound 0.6325 µM)	relative viability ([1]; first compound 2 µM)	relative viability ([1]; first compound 6.325 µM)	relative viability ([2]; first compound 0.2 µM)	relative viability ([2]; first compound 0.6325 µM)	relative viability ([2]; first compound 2 µM)	relative viability ([2]; first compound 6.325 µM)	relative viability ([3]; first compound 0.08 µM)	relative viability ([3]; first compound 0.253 µM)	relative viability ([3]; first compound 0.8 µM)	relative viability ([3]; first compound 2.53 µM)	relative viability ([3]; first compound 8 µM)	relative viability ([4]; first compound 0.08 µM)	relative viability ([4]; first compound 0.253 µM)	relative viability ([4]; first compound 0.8 µM)	relative viability ([4]; first compound 2.53 µM)	relative viability ([4]; first compound 8 µM)
NCI-H596	0.87	0.871	0.927	1.02	0.677	0.721	0.736	0.672	0.324	0.349	0.508	0.343	0.441	0.874	1.05	1.07	0.925	0.966
NCI-H727	0.332	0.355	0.512	0.56	0.646	0.616	0.772	0.59	0.357	0.302	0.356		0.404	0.684	0.596	0.596		0.578
H3255	1.14	0.852	0.878	0.898	0.592	0.552	0.541	0.562	0.461	0.434	0.453	0.305	0.47	0.895	0.83	0.984	0.697	0.692
NCI-H1437	1.12	1.06	1.21	0.965	0.626	0.628	0.623	0.574	0.471	0.326	0.473	0.319	0.392	1.16	1.07	1.16	1.03	0.836
LU99A	0.258	0.246	0.225	0.231	0.287	0.215	0.249	0.287	0.339	0.335	0.366	0.25	0.34	0.338	0.356	0.254	0.317	0.344
HCC-827	0.627	0.555	0.634	0.612	0.753	0.626	0.685	0.622	0.899	0.814	0.848	0.636	0.628	0.351	0.184	0.162	0.131	0.137
LK-2	0.188	0.188	0.164	0.186	0.778	0.68	0.893	0.867	0.574		0.657	0.515	0.677	0.386	0.362	0.434	0.239	0.271
BEN	0.415	0.737	0.264	0.516	1.01	1.07	1.12	1.07	0.607	0.506	0.655	0.434	0.557	0.664	0.68	0.779	0.457	0.646
NCI-H23	0.223	0.209	0.206	0.187	0.299	0.271	0.344	0.285	0.465	0.482	0.452	0.356	0.494	0.317	0.223	0.236	0.201	0.219
NCI-H1395	0.7	0.695	0.7	0.71	0.444	0.473	0.445	0.433	0.549	0.459	0.536	0.422	0.438	0.393	0.393	0.44	0.405	0.411
201T	1.09	1.12	1.1	1.08	0.849	0.853	0.875	0.802	0.612	0.672	0.66	0.506	0.619	0.739	0.669	0.615	0.611	0.565
NCI-H2170	0.887	0.648	0.88	0.69	0.623	0.576	0.675	0.566	0.285	0.261	0.307	0.258	0.317	0.806	0.788	0.785	0.615	0.566
NCI-H460	0.0382	0.0418	0.0348	0.0281	0.425	0.397	0.37	0.323	0.332	0.336	0.379	0.249	0.331	0.618	0.674	0.791	0.459	0.568
HCC-15	0.174	0.205	0.342	0.241	0.738	0.674	0.754	0.695	0.642	0.651	0.766	0.641	0.849	1.24	1.4	1.26	1.18	1.11
ABC-1	0.588	0.52	0.512	0.737	1.17	0.768	0.983	0.915	0.789	0.623	0.773	0.686	0.736	0.825	0.892	0.695	0.772	0.638
LCLC-103H	0.905	1.08	0.976	1.01	0.751	0.732	0.802	0.748	0.6	0.627	0.636	0.439	0.591	0.626	0.721	0.619	0.579	0.562
NCI-H441	0.318	0.368	0.334	0.584	0.566	0.495	0.691	0.551	0.453	0.389	0.408	0.32	0.431	1.02	1.18	1.36		1.19
EPLC-272H	0.228	0.736	0.262	0.432	0.738	0.888	0.767	0.329	0.325		0.297	0.287	0.333	0.531	0.151	0.298	0.197	0.207
